How the values were obtained:
[1] = degradation time in vivo of ω-oxidation-blocked fatty acid analogue; details: triple bond at methyl end blocking ω-oxidation
From the text: ω-oxidation is believed to be the main pathway for degradation of the fatty acid analogues as described with a block in the X position. Experiments were thus performed where R′ was changed to block w-oxidation, by introducing a triple bond at the methyl end of the fatty acid analogue. […] This is important for the use of the fatty acid analogues in pharmaceutical preparation, as it may potentiate the effects of the β-oxidizable fatty acid analogues by further slowing down their breakdown.

[2] = tested on: preosteoblast cell line MC3T3-E1; experiment: release of OPG, RANKL and IL6 from preosteoblast cell line MC3T3-E1; assay type: cell-based; details: preosteoblasts (MC3T3-E1)
From the text: The effect of the PPAR agonists on release of osteoprotegerin (OPG), RANKL and IL6 from the preosteoblast cell line MC3T3-E1 was investigated. […] Wyeth 14643, fenofibrate and TTA were also shown to stimulate OPG release and inhibit IL6 release from preosteoblasts, while no effects on RANKL could be detected.

human monocytes = experiment: differentiation of human monocytes into osteoclasts; assay type: cell-based
[3] = tested on: preosteoclast cell line RAW264.7; experiment: proliferation of preosteoclast cell line RAW264.7; assay type: cell-based
femoral BMD = femoral BMD in rats by DXA; assay type: in vivo, rat; details: female Fischer rats, 50 mg/kg body weight, intragastric gavage, 4 months
Method: Fifty female Fischer rats were divided into 5 groups and were given methocel (control group), Wyeth 14,643, fenofibrate, tetradecylthioacetic acid (TTA) and pioglitazone (50 mg/kg body weight) by intragastric gavage for 4 months. Body weight was registered throughout the study. BMD was measured by double x-ray absorptiometry (DXA). Histomorhometry of femur was performed, and mechanical strength in the femoral shaft and collum femoris was measured.

[4] = tested on: mitochondrial β-oxidation in the liver; experiment: activity of mitochondrial β-oxidation in the liver; details: fatty acid analogues with sulphur in 3, 5, 7 position vs palmitic acid control
From the text: Although all fatty acid anagoges with an odd positioning of the β-oxidation blocker X away from the carboxylic end block β-oxidation, the extent of their biological effect may be variable. This is due to the difference in biological degradation time of the various compounds. The inventors have done experiments to show the effect of moving X further from the carboxylic fatty acid end. In these experiments the activity (in nmol/min/mg/protein) of mitochondrial β-oxidation in the liver of fatty acid analogues was measured with sulphur in the 3, 5 and 7 positions relative to the carboxyl end. The activities were 0.81 for sulphur in the 3rd position, 0.61 for sulphur in the 5th position, 0.58 for sulphur in the 7th position, and 0.47 for palmitic acid, the non β-oxidation blocking control. […] However, as the decline is great for going from the 3rd to 5th position, but small going from the 5th to 7th position, it is reasonable to assume that this decline will continue to be less as one moves out the chain, and thus that it will be very far out indeed before no effect (compared to the control) is seen at all.

Compound: CC#CCCCCCCCCCCCSCC [3-thia-15-heptadecyn]
- degradation time in vivo [1]: substantially increased degradation time in vivo

Compound: Cc1cccc(Nc2cc(Cl)nc(SCC(=O)O)n2)c1C [Wyeth 14,643]
- IL6 release [2]: stimulated
- OPG release [2]: stimulated
- RANKL release [2]: no effects
- IL6 release ([2]; listed as Wyeth 14643): inhibit
- OPG release ([2]; listed as Wyeth 14643): stimulate
- differentiation of human monocytes into osteoclasts (human monocytes): inhibit the differentiation of human monocytes into osteoclasts in a dose-dependent manner
- proliferation of RAW264.7 [3]: inhibited the proliferation
- change in femoral BMD versus control rats (femoral BMD): 7%

Compound: CC(C)OC(=O)C(C)(C)Oc1ccc(C(=O)c2ccc(Cl)cc2)cc1 [fenofibrate]
- change in femoral BMD versus control rats (femoral BMD): 5.7%

Compound: CCCCCCCCCCCCCCCC(=O)O [palmitic acid]
- activity of mitochondrial β-oxidation in the liver [4]: 0.47 nmol/min/mg/protein

Compound: CCc1ccc(CCOc2ccc(CC3SC(=O)NC3=O)cc2)nc1 (stereo not drawn) [pioglitazone]
- change in femoral BMD versus control rats (femoral BMD): −3%

From patent US20100029973A1, “Fatty acid analogues for equilibrating bone mineral density” (priority 2005, published 2010)
